In patent publication EP4796530A1 (Biocells (Beijing) Biotech Co., Ltd., priority 2023, dated 2025):

Assays:
[1] = target: T1, hERG potassium channel (Homo sapiens, UniProt Q12809); test: hERG inhibition, automated patch clamp (QPatch 48X) in HEK-293 cells stably expressing hERG; format: cell-based; details: HEK-293 cells stably expressing hERG potassium channel, read-out: hERG inhibition rate; for inhibition at 1 µM: pH 7.4, 1 µM; for inhibition at 10 µM: pH 7.4, 10 µM
T1 construct: host or cells: HEK-293 stably expressing hERG
Experimental: The culture temperature was 37 °C, and the carbon dioxide concentration was 5%.
Cell passage: The old medium was removed, and the cells were washed once with PBS. […] Once the cells were detached from the bottom of the dish, approximately 5 mL of complete medium pre-warmed at 37 °C was added. The cell suspension was gently triturated with a pipette to dissociate aggregated cells. The cell suspension was transferred to a sterile centrifuge tube and centrifuged at 1000 rpm for 5 min to collect the cells. For expansion or maintenance, the cells were seeded into 10 cm cell culture dishes at a density of 6×10^5 cells per cell culture dish (final volume: 5 mL).
Medium was added to terminate digestion, followed by centrifugation. The cells were then resuspended and counted. The cell density was adjusted to 2-3×10^6 cells/mL. Subsequently, the cells were gently mixed for 15-20 min on a balance shaker at room temperature, and then loaded for detection.
In this study, the automated patch clamp QPatch 48X (Sophion) system was used for electrophysiological detection.
First, the prepared cells were placed on the centrifuge of the Qpatch workstation. The cells were washed with multiple centrifugation/suspension cycles, and the cell culture medium was replaced with extracellular fluid. One MTP-96 plate was retrieved and placed at the MTP source position. The QPlate chip was retrieved and placed at the QPlate source position. The robotic arm scanned the barcodes of MTP-96 plate and QPlate chip, and transferred them to the measurement station. The intracellular fluid and extracellular fluid were aspirated from the reservoir and added to the intracellular fluid pool and the pool of cell and compound of the QPlate chip, respectively. At the measurement station, all measurement sites on the QPlate experienced initial quality control. The quality control process involved aspirating the cell suspension from the cell container of the centrifuge, positioning the cells onto the chip wells via a pressure controller, and establishing high-resistance seal to form a whole-cell recording mode. Once a stable control current baseline was obtained, the test substances can be sequentially aspirated from the test substance MTP-96 plate in order of concentration and applied to the cells.
The voltage stimulation protocol for whole-cell patch-clamp recording of hERG current was as follows: after the whole-cell seal was formed, the cell membrane voltage was clamped at -80 mV. The clamped voltage was depolarized from -80 mV to -50 mV and maintained for 0.5 s (as leak current detection), then stepped to 30 mV and maintained for 2.5 s, and then rapidly returned to -50 mV and maintained for 4 s, whereby tail current of the hERG channel can be elicited. Data was collected repeatedly every 10 s to observe the effect of the drug on hERG tail current. Experimental data was collected by the QPatch screening workstation and stored in the database server.
For each drug concentration, a two-dose regimen was set for a duration of at least 5 min. For each cell, the current detected in the compound-free extracellular fluid served as self-controls, and two cells were detected in independent replicates. All electrophysiological experiments were conducted at room temperature.
The second of the two dosages was used for data analysis. For each drug concentration, the average of the last three data points prior to the next drug concentration was taken to represent the current value for the drug concentration. The current value representing each drug concentration was normalized against the reference current value used as a blank control, and then the inhibition rate corresponding to each drug concentration was calculated.

[2] = Mouse pharmacokinetics after intravenous administration (plasma and brain, LC-MS); format: in vivo; details: C57 mice, intravenous 5 mg/kg; for concentration at 120 min: brain after cardiac perfusion, read-out: brain drug concentration at 120 min; for half-life / AUC: plasma; for AUC: read-out: area under the curve (AUC) from 1 to 120 min
Experimental: C57 mice were administered intravenously, at a dosage concentration of 5 mg/kg in each group. Retro-orbital blood collection was performed on the mice at 1 min, 30 min, 1 h, and 2 h post-dosing. The collected blood was centrifuged at 3000 rpm for 10 min at 4 °C to obtain plasma. Acetonitrile was added at a 1:3 volume ratio of plasma: acetonitrile to precipitate proteins. After centrifugation, the supernatant was collected and filtered. The concentration of the compound was detected using LC-MS (Agilent 1260-G6125, SIM mode). In addition, 2 h after drug injection, the mice were subjected to cardiac perfusion and then their brains were harvested. Following tissue homogenization and centrifugation, the supernatant was collected. Acetonitrile was added at a 1:3 volume ratio of supernatant: acetonitrile to precipitate proteins. After centrifugation, the supernatant was collected and filtered. The concentration of the compound was detected using LC-MS (Agilent 1260-G6125, SIM mode).
(§1) Experimental groups: a vehicle control group, and a dosing group.

[3] = Rat plasma pharmacokinetics after intravenous administration (LC-MS); format: in vivo; details: SD rats, intravenous 2.5 mg/kg; for AUC: read-out: AUC from 1 to 1440 min
Experimental: SD rats were administered intravenously, at a dosage concentration of 2.5 mg/kg in each group. Blood was collected at the time points of 1 min, 30 min, 1 h, 2 h, 4 h, 6 h, and 24 h. The collected blood was centrifuged at 3000 rpm for 10 min at 4 °C to obtain plasma. Acetonitrile was added at a 1:3 volume ratio of plasma: acetonitrile to precipitate proteins. After centrifugation, the supernatant was collected and filtered. The concentration of the compound was detected using LC-MS (Agilent 1260-G6125, SIM mode).
as §1

[4] = target: NLRP3 (Mus musculus, UniProt Q8R4B8); test: Inhibition of canonical NLRP3 activation (LPS+ATP/Nig) in J774A.1 cells, IL-1β release by ELISA, single concentration; format: cell-based; parameters: The mouse macrophage cell line J774A.1 was used, and LPS was used as the first signal; host or cells: J774A.1 mouse monocyte-macrophage cell line; details: J774.A1, 1 µM compound, LPS + 5 mM ATP or 10 µM Nig, compared with the positive control, read-out: inhibition of IL-1β release
Experimental: J774A.1 cells were plated in a 48-well plate at a density of 1.0×10^6 cells/mL, with 300 µL per well. Subsequently, NLRP3 was activated using LPS+5 mM ATP (adenosine triphosphate) or 10 µM Nig (nigericin). […] ATP was purchased from Sigma, Cat. No.: L2654. Nig was purchased from Shanghai Yuanye Bio-Technology Co., Ltd., Cat. No.: S45490.
Experimental groups: a negative control group, an LPS-alone incubation control group, an LPS+ATP or +Nig positive control group, and an example compound experimental group.
After the plated J774A.1 cells adhering to the plate, the culture medium was replaced. For all the groups except the negative control group, the culture medium was completely replaced with cell culture medium containing 1 µg/mL LPS. The negative control group received cell culture medium. Then, all the groups were incubated overnight. 18 h later, the culture medium was replaced again. The culture medium of the example compound experimental group was completely replaced with cell culture medium containing the compounds; while the negative control group, the LPS-alone incubation control group, and the LPS+ATP/Nig positive control group received cell culture medium. 1 h later, the culture mediums of the LPS+ATP/Nig positive control group and the example compound experimental group were completely replaced with cell culture medium containing 5 mM ATP or 10 µM Nig. 1 h later, the cell supernatants were collected for IL-1β detection.
Therefore, the relative change in the amount of IL-1β release may directly reflect NLRP3 inhibitory effect.

Sequence of NLRP3 (Q8R4B8 whole entry): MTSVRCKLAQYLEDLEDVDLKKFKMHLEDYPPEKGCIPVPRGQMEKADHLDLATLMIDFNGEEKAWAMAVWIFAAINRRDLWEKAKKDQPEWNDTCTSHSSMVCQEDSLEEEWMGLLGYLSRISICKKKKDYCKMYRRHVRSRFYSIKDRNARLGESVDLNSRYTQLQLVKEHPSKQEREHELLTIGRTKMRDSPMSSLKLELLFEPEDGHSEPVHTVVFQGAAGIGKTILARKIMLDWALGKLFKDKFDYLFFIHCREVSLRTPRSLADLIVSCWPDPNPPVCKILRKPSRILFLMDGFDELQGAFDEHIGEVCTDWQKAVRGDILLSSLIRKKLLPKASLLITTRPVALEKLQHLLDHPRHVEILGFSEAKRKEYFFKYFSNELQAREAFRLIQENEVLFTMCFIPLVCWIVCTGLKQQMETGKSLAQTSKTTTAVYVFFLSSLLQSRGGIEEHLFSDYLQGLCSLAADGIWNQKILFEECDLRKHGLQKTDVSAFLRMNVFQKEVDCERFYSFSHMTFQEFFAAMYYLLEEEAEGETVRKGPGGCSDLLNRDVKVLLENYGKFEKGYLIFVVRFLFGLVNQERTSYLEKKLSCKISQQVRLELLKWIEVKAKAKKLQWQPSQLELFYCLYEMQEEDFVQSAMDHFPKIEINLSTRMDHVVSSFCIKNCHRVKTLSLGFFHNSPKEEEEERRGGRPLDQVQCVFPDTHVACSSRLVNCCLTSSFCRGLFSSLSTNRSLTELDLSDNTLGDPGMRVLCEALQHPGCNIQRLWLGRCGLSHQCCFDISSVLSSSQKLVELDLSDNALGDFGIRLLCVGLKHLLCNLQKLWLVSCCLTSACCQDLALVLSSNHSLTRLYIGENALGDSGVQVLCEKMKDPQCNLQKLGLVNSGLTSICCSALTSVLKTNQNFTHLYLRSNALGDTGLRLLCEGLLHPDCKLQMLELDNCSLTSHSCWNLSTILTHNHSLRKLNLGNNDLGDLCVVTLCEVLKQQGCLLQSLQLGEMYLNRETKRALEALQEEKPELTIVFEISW
T1 sequence (Q12809 whole entry): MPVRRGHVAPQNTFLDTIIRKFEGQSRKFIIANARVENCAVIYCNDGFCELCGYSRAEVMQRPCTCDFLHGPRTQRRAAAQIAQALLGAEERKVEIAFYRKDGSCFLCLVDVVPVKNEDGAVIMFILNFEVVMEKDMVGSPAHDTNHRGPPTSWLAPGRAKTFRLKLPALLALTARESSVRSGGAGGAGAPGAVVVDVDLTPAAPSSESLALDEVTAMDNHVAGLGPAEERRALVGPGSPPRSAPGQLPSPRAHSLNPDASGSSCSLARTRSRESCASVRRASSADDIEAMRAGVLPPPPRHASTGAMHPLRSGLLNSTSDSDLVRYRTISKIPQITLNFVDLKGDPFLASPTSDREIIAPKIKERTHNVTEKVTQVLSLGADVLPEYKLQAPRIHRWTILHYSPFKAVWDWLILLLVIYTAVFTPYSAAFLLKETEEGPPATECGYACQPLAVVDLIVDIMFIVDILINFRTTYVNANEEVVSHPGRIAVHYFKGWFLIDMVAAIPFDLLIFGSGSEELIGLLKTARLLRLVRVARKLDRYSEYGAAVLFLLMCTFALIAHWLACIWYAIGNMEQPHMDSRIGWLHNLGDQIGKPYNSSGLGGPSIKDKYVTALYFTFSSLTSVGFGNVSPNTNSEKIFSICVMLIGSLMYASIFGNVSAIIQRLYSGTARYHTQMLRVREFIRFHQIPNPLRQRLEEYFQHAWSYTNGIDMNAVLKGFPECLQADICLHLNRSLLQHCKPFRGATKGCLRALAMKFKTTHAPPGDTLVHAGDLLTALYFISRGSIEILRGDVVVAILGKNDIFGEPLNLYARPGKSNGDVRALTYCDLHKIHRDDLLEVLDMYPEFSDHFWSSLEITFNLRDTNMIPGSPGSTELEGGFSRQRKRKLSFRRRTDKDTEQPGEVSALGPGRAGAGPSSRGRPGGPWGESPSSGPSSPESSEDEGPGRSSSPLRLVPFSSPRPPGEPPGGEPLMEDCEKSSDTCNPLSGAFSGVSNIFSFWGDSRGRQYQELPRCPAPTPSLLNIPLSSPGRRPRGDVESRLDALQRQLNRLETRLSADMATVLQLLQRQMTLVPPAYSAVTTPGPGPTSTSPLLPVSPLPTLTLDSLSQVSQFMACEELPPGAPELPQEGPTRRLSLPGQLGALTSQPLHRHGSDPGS

Row | Structure (SMILES) | inhibition at 1 µM [1] [%] | inhibition at 10 µM [1] [%] | concentration at 120 min [2] [ng/mL] | half-life [2] [h] | AUC [2] [ng·h/mL] | half-life [3] [h] | AUC [3] [ng·h/mL] | inhibition at 1 µM [4] [%]
1 | CN(C)Cc1cc(S(=O)(=O)NC(=O)Nc2c3c(cc4c2CCC4)CCC3)ccc1O [Example 5, 3-((dimethylamino)methyl)-N-((1,2,3,5,6,7-hexahydro-s-indacen-4-yl)carbamoyl)-4-hydroxybenzenesulfonamide] | 0.28 | -0.61 | 3870 | 2.3 | 67400 | 1.93 | 33900 | > 80
2 | COc1ccc(S(=O)(=O)NC(=O)Nc2c3c(cc4c2CCC4)CCC3)cc1CN(C)C [Example 3, 3-((dimethylamino)methyl)-N-((1,2,3,5,6,7-hexahydro-s-indacen-4-yl)carbamoyl)-4-methoxybenzenesulfonamide] | 0.45 | 1.56 | 35500 | 1.05 | 257000 |  |  | > 80
3 | CN(C)Cc1cccc(S(=O)(=O)NC(=O)Nc2c3c(cc4c2CCC4)CCC3)c1N [Example 19, 2-amino-3-((dimethylamino)methyl)-N-((1,2,3,5,6,7-hexahydro-s-indacen-4-yl)carbamoyl)benzenesulfonamide] | 0.3 | 2.96 | 242 | 2.32 | 14700 | 3.85 | 56500 | > 80
